Data published in patent publication US20110124888A1, “STYRYLBENZOFURAN DERIVATIVES AS INHIBITORS FOR BETA-AMYLOID FIBRIL FORMATION AND PREPARATION METHOD THEREOF” (Korea Institute of Science and Technology, priority 2008, published 2011).
Like-named read-outs stand apart in the source and are kept apart here.

Assays:
[1] = Passage test through the blood-brain barrier in rats (brain tissue); assay type: in vivo, SD rats; conditions: for Cmax (brain) / Tmax: brain tissue; for Tmax / Kp: SD, rat; for Kp: brain, read-out: AUCBrain/AUC Plasma
Protocol: (§1) 1) Test Animal and Administration of Test Compound
(§2) Three 7 week-old ICR mice (weight: about 30 g) and three 8 week-old SD rats (weight: about 250 g) were used per test group. A solution prepared by dissolving the compounds of Examples 9 and 17 in excipient (DMSO/Tween 20/saline: 0.1/0.6/2.3, v/v/v) were administered to each experimental animal. The test compound was orally administered in an amount of 10 mL per kg of body weight or intravenously administered in an amount of 5 mL per kg of body weight through the fine vein.
2) Measurement of Concentration in Blood and Tissue (Simultaneous Test)
At 30 min, 1 hr, 2 hr, 4 hr, 10 hr and 24 hr after administration of test compound, the mice and rats were subjected to insufflations narcosis using isoflorane, followed by cutting the abdomen open. 1 mL of blood was collected from abdominal veins into the tube containing heparin (1000 IU/mL, 3 μl). The obtained blood sample was centrifuged at 12,000 rpm, for 2 min to obtain plasma. The obtained plasma was kept in freezer at −80° C. until the analysis.
(2) Organ Tissue-Sampling
The mice and rats from which the blood sample was obtained were subjected to bloodletting, and then, brain tissue of the mice and rats was collected. The brain tissue thus obtained was washed with physiological saline once or twice to remove blood. The weight of the brain tissue was measured after the removal of adipose tissue and peripheral tissue. 4% bovine serum albumin (BSA) solution diluted with 10-fold was added to the brain tissue. The resulting solution was subjected to homogenization using the homogenizer. The diluted homogenate thus obtained was placed in 2 ml of tube and was kept in freezer at −80° C. until the analysis. All of the treatments to the samples were performed in ice.
(§3) The sample was analyzed using LC/MSMS system under the following condition:
(§4) The sample was pretreated as follows:
(§5) 50 μL of plasma were placed in 2.0 mL of tube having a cap (Eppendorf Co.) and acidified by adding 20 μL of 0.1% formic acid thereto. An internal standard solution and 1 mL of ethyl acetate as an extract solvent were added to the resultant solution. The resultant solution was mixed using thermomixer (Eppendorf Co.) at 1400 rpm for 5 min and then subjected to centrifuge (Eppendorf Co.). The supernatant was collected and concentrated at 35° C. using cyclone. The residue was re-dissolved in 50 μL of moblie phase and 5 μL of the resulting solution was injected into LC/MS and analyzed.
(§6) In Tables 8 and 9, “iv” refers to a intravenous injection; “po” refers to a per oral; “AUC plasma” refers to an area under the plasma level-time curve; “Cmax” refers to a maximum plasma concentration; “Tmax” refers to a time to reach Cmax, “BA” refers to a bioavailability (%) according to Equation 2 below; “AUC Brain” refers to a area under the brain tissue level-time curve; and “AUCBrain/AUCPlasma” refers to a passage rate of the test compound to the brain.

[2] = Pharmacokinetics test in mice (plasma); assay type: in vivo, ICR mice; conditions: for AUC / Cmax / Tmax: ICR, mouse, plasma; for AUC / Cmax / Tmax / BA: mice; for AUC: n = 3; for AUC (in words) / bioavailability (in words): mice and rats, Tables 8 and 9; for BA: 2.5 mg/kg po vs 1.25 mg/kg iv
Protocol: as §1, §2
2) Blood Concentration Test
At 30 min, 1 hr, 2 hr, 4 hr, 10 hr and 24 hr after oral administration of the test compounds, the blood was collected from periorbital veins into the tube containing heparin (1000 IU/mL, 3 μl) for the mice, and from jugular vein for rats. The blood sample was centrifuged at 12,000 rpm for 2 min to obtain plasma. The obtained plasma was kept in freezer at −80° C. until the analysis.
as §3, §4
as §5, with “plasma was” for “plasma were”, “5 min,” for “5 min”
as §6
Bioavailability (%)=[(AUCpo/AUCiv)×(Doseiv/Dosepo)×100] Equation 2
wherein, AUCpo means an area under the blood concentration time curve (AUC) after the per oral administration, AUCiv means an AUC after the intravenous injection, Doseiv means an amount of the intravenous injection, and Dosepo means an amount of the per oral administration.

beta-amyloid 42 = beta-amyloid 42 (Homo sapiens, UniProt P05067); test: Biochemical test: content of beta-amyloid 42 in hippocampus tissue of transgenic mice; assay type: in vivo; conditions: for Reduction rate (%) of beta amyloid 42 content: hippocampus tissue, based on the content of beta amyloid 42 in the Tg group
[3] = system: congo red-positive beta-amyloid plagues; test: Immunohistochemistry: congo red-positive beta-amyloid plaque count in hippocampus and cortex of transgenic mice; assay type: in vivo; conditions: for Reduction rate (%) of beta-amyloid plaques, cortex / Reduction rate (%) of beta-amyloid plaques, hippocampus / Total reduction rate (%) of beta-amyloid plaques: vs Tg group
Protocol: The transgenic mice were screened and drug was administered thereto as described in 1) and 2) of Experimental Example 4. The brain was separated from the transgenic mouse and fixed in 10% neutral formalin solution. A region of the brain including the hippocampus and the cortex were subjected to removal, washing, dehydration and paraffin infiltration to obtain paraffin block including the brain tissue. The paraffin block was subjected to thin section in thickness of 8 μm to obtain the sections of all regions of hippocampus. Among them, 10 sections were elected at regular intervals. They were deparaffinized, hydrated, immersed in Mayer's hematoxylin for 1 min and rinsed with tap water. The rinsed tissue was reacted in an alkaline sodium chloride solution for 20 min, after then was reacted in an alkaline congo red solution for 20 min. The resulting tissue was washed with 100% ethyl alcohol, cleared with xylene and mounted using a synthetic mounting medium. In the hippocampus and cortex regions of the tissue preparations strained with congo red, congo red-positive beta-amyloid plagues were counted.

Chain of beta-amyloid 42 (P05067 672-713 limits assumed): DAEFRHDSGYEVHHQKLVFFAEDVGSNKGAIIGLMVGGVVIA

## CNc1ccc(C=Cc2cc3cc(OC)ccc3o2)cc1 [Compound 17, 5-methoxy-2-(4-methylaminostyryl)benzofuran]
[1]; 1.25 mg/kg, iv
  AUC Brain: 8740.33 ng·h/mL
  Kp: 7.6
[1]; 2.5 mg/kg, po
  AUC Brain: 11237.67 ng·h/mL
  Cmax (brain): 1406.67 ng/mL
  Tmax: 1.67 h
  Kp: 21.8
[2]; 1.25 mg/kg, iv
  AUC: 237 ng·h/mL
[2]; 2.5 mg/kg, po
  Cmax: 96.5 ng/mL
  Tmax: 0.83 h
  AUC: 326 ng·h/mL
[2]
  AUC (in words): high degree of AUC
  bioavailability (in words): superior bioavailability
  BA: 68.8%
other
  melting point: 174 to 175 °C

## COc1ccc2cc(C=Cc3ccc(N(C)C)cc3)oc2c1 [Compound 9, 6-methoxy-2-(4-dimethylaminostyryl)benzofuran]
[1]; 1.25 mg/kg, iv
  AUC Brain: 17939.63 ng·h/mL
  Kp: 11
[1]; 2.5 mg/kg, po
  AUC Brain: 15241.92 ng·h/mL
  Cmax (brain): 1309.00 ng/mL
  Tmax: 2 h
  Kp: 16.8
[2]; 1.25 mg/kg, iv
  AUC: 503 ng·h/mL
[2]; 2.5 mg/kg, po
  Cmax: 172 ng/mL
  Tmax: 0.83 h
  AUC: 646 ng·h/mL
[2]
  AUC (in words): high degree of AUC
  bioavailability (in words): superior bioavailability
  BA: 64.2%
beta-amyloid 42; 30 mg/kg
  Reduction rate (%) of beta amyloid 42 content: 41%
beta-amyloid 42; 100 mg/kg
  Reduction rate (%) of beta amyloid 42 content: 48%
beta-amyloid 42; Table 13, 30 and 100 mg/kg
  reduction rate of beta-amyloid plague compared with tramiprosate (in words): remarkable reduction rate of beta-amyloid plague in a dose-dependent manner
[3]; 30 mg/kg
  Reduction rate (%) of beta-amyloid plaques, cortex: 43%
  Reduction rate (%) of beta-amyloid plaques, hippocampus: 29%
  Total reduction rate (%) of beta-amyloid plaques: 41%
[3]; 100 mg/kg
  Reduction rate (%) of beta-amyloid plaques, cortex: 61%
  Reduction rate (%) of beta-amyloid plaques, hippocampus: 64%
  Total reduction rate (%) of beta-amyloid plaques: 61%
[3]; FIGS. 1 and 2
  beta-amyloid deposition in stained hippocampus and cortex tissues compared with tramiprosate (in words): remarkably reduced beta-amyloid deposition
[3]; Table 12, 30 and 100 mg/kg
  reduction rate of beta-amyloid deposition compared with tramiprosate (in words): remarkable reduction rate of beta-amyloid deposition in a dose-dependent manner
